Entries after “also recorded” stand apart in the source; their conditions may differ. Ends that are not written are not given here.
What was measured:
[1] = test system: Bifidobacterium adolescentis; experiment: antimicrobial radial diffusion assay, Bif. adolescentis, with and without DTT; format: cell-based; conditions: for antimicrobial activity (diameter of the inhibition zones): anaerobic, 48 h
Protocol: (§1) During execution of the assay in 10 mM sodium phosphate with 0.3 mg/ml of trypticase soya broth (TSB) and 1% (w/v) agarose with low EEO (Sigma-Aldrich), incubation took place in anaerobic conditions with antimicrobial peptides and 0-2 mM DTT. The presence of a reducing environment was controlled by adding the redox indicator resazurin. After 48-h incubation, the diameter of the inhibition zones was measured and was evaluated statistically using GraphPad Prism 4.03 and Student's t-test.
(§2) Small concentrations of the reducing agent dithiothreitol (DTT) were added to the assay medium, whereas medium without DTT served as control.

[2] = test system: Bacteroides vulgatus; experiment: antimicrobial radial diffusion assay, Bacteroides vulgatus; format: cell-based; conditions: 48 h
Protocol: as §1, §2

[3] = test system: Bifidobacterium adolescentis Ni3,29c; experiment: transmission electron microscopy of the bacteria; format: cell-based; conditions: 200 μg/ml, 2 hours, 37° C., anaerobic
Protocol: For transmission electron microscopy of the bacteria, approx. 2×10^8 CFU (colony forming units) of Bifidobacterium adolescentis Ni3,29c were incubated anaerobically for two hours at 37° C. in the absence or in the presence of 200 μg/ml synthetic defensin. The bacteria were centrifuged, fixed in prewarmed Karnovsky's solution and stored at 4° C. for 24 hours. After centrifugation, the pellet was embedded in 3.5% agarose at 37° C., coagulated at room temperature, cut into small blocks and fixed in Karnovsky's solution again. The post-fixing was based on 1.0% osmium tetroxide with 1.5% potassium ferrocyanide in 0.1 M cacodylate buffer. After embedding in glycidyl ether, the blocks were cut with an ultramicrotome (Ultracut, Reichert, Vienna, Austria). Ultrathin sections (30 nm) were applied on copper grids and analyzed with a Zeiss LIBRA 120 transmission electron microscope (Carl Zeiss, Oberkochen, Germany) at 120 kV.

[4] = test system: Bifidobacterium adolescentis, Bif. breve, Bif. longum and Bif. bifidum; experiment: radial diffusion assay, oxidized and reduced peptide against Bifidobacterium spp.; format: cell-based; conditions: oxidized or reduced peptide 1.5 μg, anaerobic, medium without DTT, 48 h
Protocol: as §1
(§3) (FIG. 3A). […] Furthermore, the same assay was carried out with the Gram-positive strains Lactobacillus acidophilus and L. fermentum, and with the Gram-negative strain Bacteroides vulgatus and the facultatively anaerobic strain Escherichia coli K12 (FIG. 3B).

[5] = test system: Lactobacillus acidophilus and L. fermentum; experiment: radial diffusion assay, Lactobacilli; format: cell-based, Lactobacillus spp.; conditions: oxidized or reduced peptide 3 μg, medium without DTT, 48 h
Protocol: as §1, §3

[6] = test system: Escherichia coli K12; experiment: radial diffusion assay, Escherichia coli K12; format: cell-based; conditions: oxidized or reduced peptide 1.5 μg, medium without DTT, 48 h
Protocol: as §1, §3

[7] = test system: Candida albicans; experiment: flow cytometry assay, depolarized yeasts, clinical Candida isolates; format: cell-based; conditions: 40 μg/ml, 90-minute incubation, 5 clinical isolates
Protocol: (A) 1.5 μg oxidized and reduced hBD-1 was incubated with Bifidobacterium spp., Lactobacillus spp., Bacteroides vulgatus (B) and Escherichia coli. For Lactobacilli, the amount of defensin was 3 μg. The formation of inhibition zones was investigated after 48 hours, representative radial diffusion assays from 3 experiments are shown. […] The proportion of depolarized yeasts after 90-minute incubation with reduced or oxidized hBD-1, measured with a flow cytometry assay, is shown. hBD-1 red=reduced hBD-1, hBD-1 ox=oxidized hBD-1. The mean values+standard deviation of two experiments, carried out in each case in duplicate, are shown, (D) cysteine amino acids in the hBD-1 peptide were exchanged for alanine or serine and the hydrophobicity of the hBD-1 variants was analyzed by RP-HPLC. (E) flow cytometry assay for detecting bacterial membrane depolarization of Bifidobacterium adolescentis after incubation with reduced or oxidized hBD-1. Squares show an incubation time of 30 minutes, circles a time of 90 minutes. […] Fixed bacteria were analyzed by transmission microscopy, magnification bars=200 nm.
Flow-cytometry antimicrobial assay, in which the membrane depolarization of the bacteria was measured, was carried out as described in: Nuding, S., et al., “Antibacterial activity of human defensins on anaerobic intestinal bacterial species: a major role of HBD-3.” Microbes. […]

[8] = test system: Bifidobacterium adolescentis; experiment: flow-cytometry antimicrobial assay, bacterial membrane depolarization; format: cell-based
Protocol: Flow-cytometry antimicrobial assay, in which the membrane depolarization of the bacteria was measured, was carried out as described in: Nuding, S., et al., “Antibacterial activity of human defensins on anaerobic intestinal bacterial species: a major role of HBD-3.” Microbes. Infect. 11 (3), 384-393 (2009).
In order to investigate whether the observed inhibition of growth of Gram-positive anaerobes is bacteriostatic or bactericidal, flow-cytometry antimicrobial assays were carried out with bacterial membrane depolarization as the reading system. […] This pointed to a rapid bactericidal effect of the linear hBD-1.

[9] = RP-HPLC analysis of hydrophobicity; format: physicochemical; conditions: water/acetonitrile gradient; reduced hBD-1 vs oxidized hBD-1, variants vs reduced hBD-1
Text: For the high-performance liquid chromatography (HPLC) analysis, a system of the Agilent 1200 series and a Vydac 218TP-C18 column were used, using a water/acetonitrile gradient with trifluoroacetic acid as ion-pair reagent.

[10] = target: T1, human thioredoxin (Homo sapiens, UniProt P10599); experiment: thioredoxin reductase assay (reduction of hBD-1, RP-HPLC); format: biochemical; conditions: 10 μM hBD-1, 0.5-1.5 μM thioredoxin, 100 nM thioredoxin reductase, 0.8 mM NADPH, 30 minutes, 37° C.
T1 sequence (P10599 1-105): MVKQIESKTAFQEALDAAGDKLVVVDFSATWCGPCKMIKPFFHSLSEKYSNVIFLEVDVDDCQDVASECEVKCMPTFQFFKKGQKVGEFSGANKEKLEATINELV
Protocol: FIG. 4 Thioredoxin (TRX) co-localized with hBD-1 and is capable of catalyzing the reduction of hBD-1. (A) immuno-histochemistry staining of hBD-1 and thioredoxin of human colon sections. Magnification bars=100 μm. (B) 10 μM oxidized hBD-1 was incubated with or without 0.5, 1.0 and 1.5 μM human thioredoxin and 100 nM rat thioredoxin reductase for 30 minutes at 37° C. in 0.10 M potassium phosphate-2 mM EDTA, pH 7.0 buffer and 0.8 mM NADPH. Incubation assays were analyzed by RP-HPLC and the transformation of oxidized to reduced hBD-1 was observed. hBD-1 ox=oxidized hBD-1, hBD-1 red=reduced hBD-1. […] Formation of inhibition zones was investigated after incubation for 48 hours, representative assays are shown.
The thioredoxin reductase assay was carried out as follows: For this, oxidized hBD-1 was incubated with 0.5-1.5 μM thioredoxin or protein disulfide-isomerase in the presence of 100 nM thioredoxin reductase and 0.8 mM NADPH in 0.1 M […] phosphate buffer-2 mM EDTA. The incubation mixtures were analyzed by RP-HPLC, with which the transformation of oxidized to reduced hBD-1 peptide could be observed.

[11] = reducing conditions (DTT added, 1 mM or 2 mM)
[12] = with or without DTT (1 mM or 2 mM), 0.5-2.0 μg peptide
[13] = oxidized or reduced peptide 1.5 μg, medium without DTT
[14] = 30 minutes of incubation, 60 μg/μl

| Substance | antimicrobial activity (diameter of the inhibition zones) ([1]; medium without DTT) | antimicrobial activity (diameter of the inhibition zones) [1, 11] | antimicrobial activity (inhibition zones) [2, 12] | morphology of the bacterial cells [3] | antimicrobial activity (inhibition zones) [2, 13] | antimicrobial activity (inhibition zones) [4] | antimicrobial activity (inhibition zones) [5] | antimicrobial activity (inhibition zones) [6] | antifungal activity (proportion of depolarized yeasts) [7] | membrane depolarization of the bacteria [8, 14] | also measured |
| --- | --- | --- | --- | --- | --- | --- | --- | --- | --- | --- | --- |
| human beta-defensin 3 (GIINTLQKYYCRVRGGRCAVLSCLPKEEQIGKCSTRGRKCCRRKK; UniProt P81534 23-67, looked up) [hBD-3, reference compound] | strong antimicrobial activity | slightly reduced antimicrobial activity; also recorded: reduced activity | concentration-dependent inhibition zones | mainly attacks the bacterial membrane | – | – | – | – | – | – | – |
| reduced hBD-1: fully reduced, linear hBD-1 with free cysteine residues (DHYNCVSSGGQCLYSACPIFTKIQGTCYRGKAKCCK; Beta-defensin 1 reduced, free cysteines; UniProt P60022 33-68, looked up) | – | – | – | cellular disintegration | no effect | antimicrobial activity against all the strains tested | clear inhibition zones | antimicrobial activity | active against 4 out of 5 clinical Candida isolates; also recorded: effective antifungal activity against four out of five strains | 50% | effectiveness compared with the oxidized form ([8]; flow cytometry, membrane depolarization): more effective; hydrophobicity (RP-HPLC) [9]: more hydrophobic; also recorded: increase in the hydrophobicity |
| hBD-1Δ30-36: shortened variant of hBD-1 without the seven C-terminal amino acids GKAKCCK (SEQ ID No. 1) (DHYNCVSSGGQCLYSACPIFTKIQGTCYR; ends and bridges not checked; cysteine pairing not given here; UniProt P60022 33-61, looked up, fragment) | unable to inhibit the growth | unable to inhibit the growth | – | – | – | – | – | – | – | – | – |
| oxidized hBD-1: fully oxidized hBD-1 possessing all disulfide bridges (DHYNCVSSGGQCLYSACPIFTKIQGTCYRGKAKCCK; disulfide (positions not given here); also: three disulfides, pairing not given here) | – | – | – | did not show morphological damage of any kind | no effect | did not show any antimicrobial activity | no effect at all | antimicrobial activity; also recorded: sensitive | no action and not | no significant depolarization | membrane depolarization of the bacteria ([8]; 90 minutes of incubation): no significant depolarization |
| lysozyme [reference compound] | – | slightly reduced antimicrobial activity | – | – | – | – | – | – | – | – | – |
| human beta-defensin 1 (DHYNCVSSGGQCLYSACPIFTKIQGTCYRGKAKCCK; disulfide (positions not given here); also: three disulfides, pairing not given here) [hBD-1, synthetic human beta-defensin 1, antimicrobial peptide with three disulfide bridges] | no effect on the growth | antimicrobial activity only through reduction | did not show any antimicrobial activity; also recorded: growth-inhibiting effect was not observed | – | – | – | – | – | – | – | antimicrobial activity compared with hBD-3 ([1]; 2 mM DTT): as effective as hBD-3; antimicrobial activity ([1]; in the presence of 150 mM sodium chloride (data not shown)): disappeared; antimicrobial activity (diameter of the inhibition zones) ([1]; medium with 1 mM DTT): concentration-dependent inhibition zones; transformation of oxidized to reduced hBD-1 [10]: reduced by thioredoxin |

Source: patent US20130336950A1, “MATERIAL COMBINATION FOR TREATING INFLAMMATORY OR INFECTIOUS DISEASES” (priority 2010, published 2013)
